Legend:
Type in all cases: cell-based, mouse
[1] = test system: SSEA1+ day 4 intermediates of reprogrammable MEFs; experiment: Microarray and gene ontology analysis of day 4 reprogramming intermediates; settings: individual chemical
Source text: For the study of reprogramming intermediates, cultures of reprogrammable MEFs at day 4 in presence of OKSM expression were harvested and stained with biotinylated anti-SSEA1 antibody (MC-480, eBioscience), followed by APC-conjugated Streptavidin and anti-APC microbeads (Milteny Biotec). SSEA1^+ cells were enriched to ˜90% purity using MACS separation columns (Milteny Biotec) according to the manufacturer's instructions. Total RNA extracted with the miRNeasy mini kit (QIAGEN) with a RIN value >8 was subjected to transcriptional analyses with Affymetrix mouse genome 430 2.0 mRNA expression microarrays followed by bioinformatic analyses.
Pair-wise differential expression of MEFs, ESCs, GMPs and HEPs was assessed using a t-test and the resulting p-values were adjusted for multiple hypothesis testing as by the Benjamini & Hochberg procedure. […] FDR was assessed using the following methodology. […] Briefly, differential expression was assessed for every Affymetrix transcript probe between samples. As a preprocessing step, quantiles were normalized across samples and replicates, and subsequently fold changes were computed for each probe across the two replicates of each sample. The false discovery rate was computed by comparing the distribution of fold changes against the distribution of fold changes between replicates of the same sample.

GMPs [2] = experiment: Bulk reprogramming of granulocyte-macrophage progenitors, dox-independent colonies
Method: (§1) MEFs (Stadtfeld et al., 2008) and hepatoblasts (Gailhouste, 2012) were isolated from E14.5 embryos and GMPs, CMPs, MEP and LSK cells from either fetal liver or adult bone marrow (Akashi et al., 2000). All cell types used for reprogramming experiments were heterozygous for the inducible OKSM cassette, Rosa26-rtTA and the Oct4-GFP reporter. MEFs were expanded in reduced-oxygen conditions (4%) and used at passages 1 or 2. For reprogramming, cells were seeded in ESC media (DMEM with 15% FBS, L-glutamin, penicillin-streptomycin, nonessential amino acids, β-mercaptoethanol and 1000 U/ml LIF) at the desired density on a layer of irradiated feeder cells in presence of 1 mg/ml doxycycline. If applicable, L-Ascorbic acid (50 ng/μl), CHIR99021 (3 μM), TGFβ RI Kinase Inhibitor II (250 nM) and PD032590 (0.75 μM) were added. […] To score factor-independent colonies, dox (and other compounds) were removed by washing cultures twice with PBS and then maintaining them in ESC media for at least three days before colonies were counted by fluorescence microscopy or after alkaline phosphatase staining (Vector Laboratories). For quantification of Oct4-GFP expression, cultures were harvested by trypsin digestion, stained with DAPI or 7-AAD to exclude dead cells, acquired on a LSRII cytometer (BD Biosciences) and analyzed with FlowJo software (Tree Star Inc.). […]

reprogrammable MEFs = experiment: Reprogramming of reprogrammable MEFs seeded in bulk, dox-independent colonies; settings: six days dox plus compound, then three days unsupplemented ESC media
Method: MEFs (Stadtfeld et al., 2008) and hepatoblasts (Gailhouste, 2012) were isolated from E14.5 embryos and GMPs, CMPs, MEP and LSK cells from either fetal liver or adult bone marrow (Akashi et al., 2000). All cell types used for reprogramming experiments were heterozygous for the inducible OKSM cassette, Rosa26-rtTA and the Oct4-GFP reporter. MEFs were expanded in reduced-oxygen conditions (4%) and used at passages 1 or 2. For reprogramming, cells were seeded in ESC media (DMEM with 15% FBS, L-glutamin, penicillin-streptomycin, nonessential amino acids, β-mercaptoethanol and 1000 U/ml LIF) at the desired density on a layer of irradiated feeder cells in presence of 1 mg/ml doxycycline. If applicable, L-Ascorbic acid (50 ng/μl), CHIR99021 (3 μM), TGFβ RI Kinase Inhibitor II (250 nM) and PD032590 (0.75 μM) were added. For GMPs and other blood progenitors, cultures were supplemented with Flt3-ligand (10 ng/ml) and SCF (20 ng/ml) for the first three days of reprogramming. Media was replenished every two days. To facilitate detection of Oct4-GFP expression in nascent colonies by fluorescent microscopy, reprogramming experiments were conducted in ESC media prepared with FluoroBrite DMEM (Life Technologies) when required. To score factor-independent colonies, dox (and other compounds) were removed by washing cultures twice with PBS and then maintaining them in ESC media for at least three days before colonies were counted by fluorescence microscopy or after alkaline phosphatase staining (Vector Laboratories). For quantification of Oct4-GFP expression, cultures were harvested by trypsin digestion, stained with DAPI or 7-AAD to exclude dead cells, acquired on a LSRII cytometer (BD Biosciences) and analyzed with FlowJo software (Tree Star Inc.).
The aforementioned compounds were tested using “reprogrammable MEFs” (Stadtfeld et al., 2010) engineered to express a doxycycline (dox)-inducible cassette encoding OKSM (Sommer et al., 2009) from a single defined genomic position and a GFP reporter from the endogenous Oct4 locus, whose expression is a hallmark of the pluripotent state. […]

hepatoblasts = experiment: Reprogramming of hepatoblasts, dox-independent colonies; settings: compound alone
Method: as §1

β-catenin = β-catenin immunofluorescence in GMPs; settings: purified GMPs cultured in CHIR, two days
Source text: FIG. 8A-8G. Related to FIG. 3. (8A) Fluorescence images of DsRed and Oct4-GFP expression in a representative GMP-derived colony derived upon culture in dox+CHIR for six days. (8B) Percentage of Oct4-GFP^+ cells in successfully reprogramming colonies after single cell seeding of GMPs in dox+CHIR or dox+3c, respectively (n=10 clonal colonies for each condition). (8C) AP staining of dox-independent colonies derived from LSK, GMP, MEP and CMPs in dox, dox+CHIR or dox+3c after six days of culture. (8D) Percentage of Oct4-GFP^+ cells in colonies obtained after single cell seeding of hepatoblasts and culture under the indicated conditions for six days (n=10 clonal colonies). (8E) IF images of β-catenin staining in cells derived from GMPs cultured under dox or dox+CHIR for two days. White arrows highlight representative cells positive for β-catenin expression. […]
Cells were fixed with paraformaldehyde, permeabilized and stained with primary antibodies against Oct4 (Santa Cruz, sc-8628), Nanog (Abcam, ab808992), Utf1 (Abcam, ab24273), Sall4 (Abcam, ab29112), Lin28 (Abcam, ab46020) and β-catenin (Sigma, C7207) followed by staining with appropriate secondary antibodies conjugated to either Alexa Fluor 555 or 647 (Invitrogen). Images were acquired with a Neo 5.5 cSMOS camera (Andor) and processed and analyzed using NIS-Elements and Adobe Photoshop. […]

GMPs [3] = experiment: Single cell seeding of DsRed GMPs, Oct4-GFP expression; settings: flow cytometry, six days
Method: as §1

| Structure (SMILES) | aspect of the somatic program whose silencing is facilitated (GO analysis) [1] | effect on iPSC formation from blood progenitor cells (GMPs [2]) | dox-independent colonies, efficiency of input cells (reprogrammable MEFs) | effect on number of iPSC colonies from hepatoblasts (hepatoblasts) | β-catenin protein level (β-catenin) | average GFP labeling index (Oct4-GFP+ cells in colonies) (GMPs [3]) |
| --- | --- | --- | --- | --- | --- | --- |
| O=C1O[C@H]([C@@H](O)CO)C(O)=C1O [AA, ascorbic acid] | mesodermal differentiation potential | did not significantly enhance | about 2% |  |  |  |
| Cc1c[nH]c(-c2cnc(NCCNc3ccc(C#N)cn3)nc2-c2ccc(Cl)cc2Cl)n1 [CHIR] |  |  | 0.5% | little beneficial effect | rapidly accumulated | over 90% |
| Cc1cccc(-c2[nH]ncc2-c2ccc3ncccc3n2)n1 [iAlk5] | collagen synthesis |  | about 2% |  |  |  |
